According to BindingDB's records for patent US20250221987 (Acerand Therapeutics (Hong Kong), 2025):

How the values were obtained:
[1] = target: Poly [ADP-ribose] polymerase 1 (Homo sapiens, UniProt P09874); assay: PARP1 Enzymatic Activity Assay
Experimental: 2) After the coating was completed, the coating buffer was discarded. […] After washing, the blocking buffer was discarded. […] 4) 1000× compound was prepared. 1 μL of compound was transferred to a 96-well plate containing 199 μL of reaction buffer (50 mM Tris-HCl (pH 7.5), 0.005% Tween-20, 0.01% BSA) and mixed well. […] 5) 25/10×PARP1-DNA solution was prepared with reaction buffer. […] 6) 25/10×NAD+ solution was prepared with reaction buffer. […] 8) Primary antibody was 2000-fold diluted with the blocking buffer. 20 μL of primary antibody was added to the reaction plate, which was incubated at room temperature for 1.5 hours. 9) The primary antibody was discarded. […] 10) Secondary antibody was 2000-fold diluted with the blocking buffer. […] 11) The secondary antibody was discarded. […] The chemiluminescence value RLU was read with Envision.

[2] = target: Poly [ADP-ribose] polymerase 2 (Homo sapiens, UniProt Q9UGN5); assay: PARP2 Enzymatic Activity Assay
Poly [ADP-ribose] polymerase 2, sequence (Q9UGN5 whole entry): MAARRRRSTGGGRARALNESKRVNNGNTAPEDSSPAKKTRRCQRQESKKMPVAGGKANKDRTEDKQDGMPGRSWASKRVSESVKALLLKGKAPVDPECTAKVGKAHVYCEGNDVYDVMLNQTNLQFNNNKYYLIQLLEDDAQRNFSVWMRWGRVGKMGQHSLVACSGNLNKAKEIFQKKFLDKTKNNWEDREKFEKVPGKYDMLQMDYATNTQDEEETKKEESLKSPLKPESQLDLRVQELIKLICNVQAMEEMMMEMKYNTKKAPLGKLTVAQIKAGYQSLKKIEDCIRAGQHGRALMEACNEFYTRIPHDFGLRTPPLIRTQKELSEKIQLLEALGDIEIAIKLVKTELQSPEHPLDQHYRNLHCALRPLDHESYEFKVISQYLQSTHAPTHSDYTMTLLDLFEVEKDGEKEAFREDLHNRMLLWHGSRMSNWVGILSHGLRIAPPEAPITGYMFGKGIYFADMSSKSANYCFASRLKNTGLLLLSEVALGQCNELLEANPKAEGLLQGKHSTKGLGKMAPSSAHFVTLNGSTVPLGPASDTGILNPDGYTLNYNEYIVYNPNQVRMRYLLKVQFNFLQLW
Experimental: 2) After the coating was completed, the coating buffer was discarded. […] 6) 2000× compound was prepared. […] 10) The Stre-HRP solution was discarded.

Poly [ADP-ribose] polymerase 1, sequence (P09874 whole entry): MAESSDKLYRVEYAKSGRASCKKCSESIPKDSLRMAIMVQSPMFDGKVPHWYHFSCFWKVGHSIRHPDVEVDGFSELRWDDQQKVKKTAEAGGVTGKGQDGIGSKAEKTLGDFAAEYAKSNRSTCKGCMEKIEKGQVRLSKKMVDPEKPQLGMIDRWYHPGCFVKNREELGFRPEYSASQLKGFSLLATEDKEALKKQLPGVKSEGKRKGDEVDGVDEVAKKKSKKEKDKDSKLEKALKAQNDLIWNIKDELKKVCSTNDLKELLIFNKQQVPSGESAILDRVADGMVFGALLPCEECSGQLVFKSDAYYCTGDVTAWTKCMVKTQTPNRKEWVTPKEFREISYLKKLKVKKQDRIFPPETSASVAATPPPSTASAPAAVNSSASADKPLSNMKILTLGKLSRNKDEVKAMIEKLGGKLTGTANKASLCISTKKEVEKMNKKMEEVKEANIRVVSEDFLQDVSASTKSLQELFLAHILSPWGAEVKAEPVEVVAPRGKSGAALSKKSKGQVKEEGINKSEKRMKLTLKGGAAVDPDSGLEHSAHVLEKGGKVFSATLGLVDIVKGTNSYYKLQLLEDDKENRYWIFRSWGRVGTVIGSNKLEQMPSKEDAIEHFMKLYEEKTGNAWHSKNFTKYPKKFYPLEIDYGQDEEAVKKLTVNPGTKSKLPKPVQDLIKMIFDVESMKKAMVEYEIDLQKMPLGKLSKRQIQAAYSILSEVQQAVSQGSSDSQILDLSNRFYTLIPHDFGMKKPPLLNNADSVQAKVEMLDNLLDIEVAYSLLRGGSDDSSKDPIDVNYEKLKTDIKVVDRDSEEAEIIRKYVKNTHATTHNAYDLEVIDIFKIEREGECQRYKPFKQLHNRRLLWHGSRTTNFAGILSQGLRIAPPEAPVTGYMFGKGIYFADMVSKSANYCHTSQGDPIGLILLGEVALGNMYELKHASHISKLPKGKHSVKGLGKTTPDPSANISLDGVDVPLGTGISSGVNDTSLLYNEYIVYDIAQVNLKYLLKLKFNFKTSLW

SMILES | IC50 [1] | IC50 [2]
CCc1cc2ncc(CN3CCN(c4ccc(C(=O)NC)nc4)[C@H]4C[C@H]43)cc2[nH]c1=O [US20250221987, Example 1-1] | 0.9 nM | 
CCc1cc2ncc(CN3CCN(c4ccc(C(=O)NC)nc4)[C@@H]4C[C@@H]43)cc2[nH]c1=O [US20250221987, Example 1-2] | 0.7 nM | 
CCc1cc2ncc(CN3CCN(c4ccc(C(=O)NC)nc4)C4CC43)cc2[nH]c1=O (stereo unspecified) [US20250221987, Example 1] | 1.1 nM | 
CCc1cc2ncc(CN3CCN(c4ccc(C(=O)NC)nc4)[C@@H]4CC[C@H]43)cc2[nH]c1=O [US20250221987, Example 2-3] | 1.5 nM | 72 nM
CCc1cc2ncc(CN3CCN(c4ccc(C(=O)NC)nc4)[C@H]4CC[C@@H]43)cc2[nH]c1=O [US20250221987, Example 2-4] | 1 nM | 40 nM
CCc1cc2ncc(CN3CCN(c4ccc(C(=O)NC)nc4)C4CCC43)cc2[nH]c1=O (stereo unspecified) [US20250221987, Example 2] | 0.9 nM | 14 nM
CNC(=O)c1ccc(N2CCN(Cc3cnc4cc(OC)c(=O)[nH]c4c3)[C@H]3CC[C@H]32)cn1 [US20250221987, Example 33-1] | 6.6 nM | > 300 nM
